According to PubChem BioAssay (NCI):
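Compound exposure: 48 hours, 5 concentrations, 96-well plates. GI50: concentration for 50% inhibition of growth. The concentration for full growth arrest is given as TGI.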

How the values were obtained:
Assay in all cases: growth of human tumour cells (NCI), 48 h
[1] = test system: HL-60(TB) leukemia
[2] = test system: LOX IMVI melanoma
[3] = test system: A549 NSCLC
[4] = test system: BT-549 breast
[5] = test system: HCT-15 colon
[6] = test system: NCI-H460 lung
[7] = test system: T-47D breast
[8] = test system: ACHN renal
[9] = test system: NCI-H23 lung
[10] = test system: SK-MEL-28 melanoma
[11] = test system: OVCAR-3 ovarian
[12] = test system: UACC-62 melanoma
[13] = test system: NCI-H522 lung
[14] = test system: 786-0 renal
[15] = test system: IGROV1 ovarian
[16] = test system: M14 melanoma
[17] = test system: MALME-3M melanoma
[18] = test system: HCC-2998 colon
[19] = test system: NCI/ADR-RES ovarian
[20] = test system: SW-620 colon
[21] = test system: MDA-MB-435
[22] = test system: UO-31 renal
[23] = test system: HT29 colon
[24] = test system: CAKI-1 renal
[25] = test system: SNB-19 CNS
[26] = test system: SNB-75 CNS
[27] = test system: KM12 colon
[28] = test system: NCI-H226 lung
[29] = test system: SK-MEL-2 melanoma
[30] = test system: HOP-92 NSCLC
[31] = test system: OVCAR-8 ovarian
[32] = test system: DU-145 prostate
[33] = test system: SK-MEL-5 melanoma
[34] = test system: SK-OV-3 ovarian
[35] = test system: SN12C renal
[36] = test system: MDA-MB-231 breast
[37] = test system: HOP-62 NSCLC
[38] = test system: RPMI-8226 leukemia
[39] = test system: COLO 205 colon
[40] = test system: SF-539 CNS
[41] = test system: SF-268 CNS
[42] = test system: A498 renal
[43] = test system: U251 CNS
[44] = test system: OVCAR-4 ovarian
[45] = test system: MCF7 breast
[46] = test system: PC-3 prostate
[47] = test system: MOLT-4 leukemia
[48] = test system: OVCAR-5 ovarian
[49] = test system: HS 578T breast
[50] = test system: SF-295 CNS
[51] = test system: RXF 393 renal
[52] = test system: EKVX NSCLC
[53] = test system: CCRF-CEM leukemia
[54] = test system: UACC-257 melanoma
[55] = test system: TK-10 renal
[56] = test system: HCT-116 colon
[57] = test system: K-562 leukemia
[58] = test system: SR leukemia

SMILES: C/C(=C(/c1ccc(O)cc1)c1ccc(Cl)cc1)c1ccccc1
- GI50 [1]: 646 nM
- TGI [1]: 1710 nM
- GI50 [2]: 432 nM
- TGI [2]: 788 nM
- GI50 [3]: 723 nM
- TGI [3]: 2530 nM
- GI50 [4]: 575 nM
- TGI [4]: 1530 nM
- GI50 [5]: 639 nM
- TGI [5]: 2060 nM
- GI50 [6]: 471 nM
- TGI [6]: 945 nM
- GI50 [7]: 762 nM
- TGI [7]: 3220 nM
- GI50 [8]: 628 nM
- TGI [8]: 1800 nM
- GI50 [9]: 625 nM
- TGI [9]: 1840 nM
- GI50 [10]: 685 nM
- TGI [10]: 2180 nM
- GI50 [11]: 552 nM
- TGI [11]: 1310 nM
- GI50 [12]: 473 nM
- TGI [12]: 1060 nM
- GI50 [13]: 739 nM
- TGI [13]: 2800 nM
- GI50 [14]: 558 nM
- TGI [14]: 1560 nM
- GI50 [15]: 671 nM
- TGI [15]: 2220 nM
- GI50 [16]: 654 nM
- TGI [16]: 1930 nM
- GI50 [17]: 459 nM
- TGI [17]: 1000 nM
- GI50 [18]: 612 nM
- TGI [18]: 1510 nM
- GI50 [19]: 668 nM
- TGI [19]: 1890 nM
- GI50 [20]: 800 nM
- TGI [20]: 2780 nM
- GI50 [21]: 534 nM
- TGI [21]: 1180 nM
- GI50 [22]: 509 nM
- TGI [22]: 1570 nM
- GI50 [23]: 852 nM
- TGI [23]: 3170 nM
- GI50 [24]: 781 nM
- TGI [24]: 2680 nM
- GI50 [25]: 760 nM
- TGI [25]: 2180 nM
- GI50 [26]: 629 nM
- TGI [26]: 1960 nM
- GI50 [27]: 543 nM
- TGI [27]: 1220 nM
- GI50 [28]: 2750 nM
- TGI [28]: 7900 nM
- GI50 [29]: 659 nM
- TGI [29]: 1810 nM
- GI50 [30]: 448 nM
- TGI [30]: 1090 nM
- GI50 [31]: 900 nM
- TGI [31]: 3210 nM
- GI50 [32]: 719 nM
- TGI [32]: 1910 nM
- GI50 [33]: 454 nM
- TGI [33]: 849 nM
- GI50 [34]: 1040 nM
- TGI [34]: 3760 nM
- GI50 [35]: 466 nM
- TGI [35]: 977 nM
- GI50 [36]: 653 nM
- TGI [36]: 1860 nM
- GI50 [37]: 546 nM
- TGI [37]: 1370 nM
- GI50 [38]: 583 nM
- TGI [38]: 1690 nM
- GI50 [39]: 2440 nM
- TGI [39]: 5960 nM
- GI50 [40]: 545 nM
- TGI [40]: 1250 nM
- GI50 [41]: 582 nM
- TGI [41]: 1610 nM
- GI50 [42]: 1540 nM
- TGI [42]: 5060 nM
- GI50 [43]: 537 nM
- TGI [43]: 1180 nM
- GI50 [44]: 660 nM
- TGI [44]: 2610 nM
- GI50 [45]: 767 nM
- TGI [45]: 2070 nM
- GI50 [46]: 721 nM
- TGI [46]: 2560 nM
- GI50 [47]: 678 nM
- TGI [47]: 2410 nM
- GI50 [48]: 1170 nM
- TGI [48]: 2670 nM
- GI50 [49]: 600 nM
- TGI [49]: 1670 nM
- GI50 [50]: 603 nM
- TGI [50]: 1500 nM
- GI50 [51]: 469 nM
- TGI [51]: 1170 nM
- GI50 [52]: 698 nM
- TGI [52]: 2120 nM
- GI50 [53]: 764 nM
- TGI [53]: 2870 nM
- GI50 [54]: 822 nM
- TGI [54]: 2770 nM
- GI50 [55]: 1720 nM
- TGI [55]: 5000 nM
- GI50 [56]: 543 nM
- TGI [56]: 1270 nM
- GI50 [57]: 539 nM
- TGI [57]: 2830 nM
- GI50 [58]: 920 nM
- TGI [58]: 7980 nM
